Counter-ions that a name gives are not always drawn.
Columns and labels:
Settings in all cases: exposure time: 72 h
E31 [1] = patient-derived glioblastoma stem cells of proneural subtype; experiment: phenotypic distance (Euclidean, principal components) from DMSO controls (arbitrary units); higher = stronger morphological change
E34 [2] = patient-derived glioblastoma stem cells of proneural subtype; experiment: as above
E13 [3] = patient-derived glioblastoma stem cells of classical subtype; experiment: as above
E28 [4] = patient-derived glioblastoma stem cells of classical subtype; experiment: as above
E21 [5] = patient-derived glioblastoma stem cells of mesenchymal subtype; experiment: as above
FT3469 [6] = normal neural stem cell line; experiment: as above
E57 [7] = patient-derived glioblastoma stem cells of mesenchymal subtype; experiment: as above
E31 [8] = experiment: surviving fraction (nuclei count normalised to DMSO); higher = more cells surviving (less toxic)
E34 [9] = experiment: as above
E13 [10] = experiment: as above
E28 [11] = experiment: as above
E21 [12] = experiment: as above
FT3469 [13] = experiment: as above
E57 [14] = experiment: as above
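Wherever phenotypic distance (Euclidean, principal components) from DMSO controls is given: cell Painting imaging in 384-well plates, CellProfiler features reduced to at least 20 principal components, Euclidean distance versus same-plate DMSO vehicle wells (0.1% v/v), median over six images per well.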
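Wherever surviving fraction (nuclei count normalised to DMSO) is given: nuclei counted by high-content imaging of Hoechst-stained cells in laminin-coated 384-well plates, relative to 0.1% DMSO vehicle wells, with staurosporine as cell-death control.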

CC(C)NCC(O)COc1cccc2ccccc12 (stereo not drawn) [Propranolol hydrochloride]
Settings	phenotypic distance	surviving fraction
E13 [3], 4.1 nM	0.572	–
E13 [3], 12.3 nM	1.82	–
E13 [3], 37 nM	0.661	–
E13 [3], 111.1 nM	0.582	–
E13 [3], 333.3 nM	0.522	–
E13 [3], 1000 nM	0.547	–
E13 [3], 3000 nM	0.516	–
E13 [10], 4.1 nM	–	0.971
E13 [10], 12.3 nM	–	1.08
E13 [10], 37 nM	–	0.923
E13 [10], 111.1 nM	–	1.07
E13 [10], 333.3 nM	–	1.1
E13 [10], 1000 nM	–	1.03
E13 [10], 3000 nM	–	0.991
E21 [5], 4.1 nM	0.729	–
E21 [5], 12.3 nM	0.784	–
E21 [5], 37 nM	0.999	–
E21 [5], 111.1 nM	0.707	–
E21 [5], 333.3 nM	0.864	–
E21 [5], 1000 nM	0.673	–
E21 [5], 3000 nM	0.713	–
E21 [12], 4.1 nM	–	0.912
E21 [12], 12.3 nM	–	0.926
E21 [12], 37 nM	–	0.978
E21 [12], 111.1 nM	–	1.01
E21 [12], 333.3 nM	–	1.01
E21 [12], 1000 nM	–	1.1
E21 [12], 3000 nM	–	1
E28 [4], 4.1 nM	0.642	–
E28 [4], 12.3 nM	0.425	–
E28 [4], 37 nM	0.914	–
E28 [4], 111.1 nM	0.692	–
E28 [4], 333.3 nM	0.687	–
E28 [4], 1000 nM	0.509	–
E28 [4], 3000 nM	0.633	–
E28 [11], 4.1 nM	–	0.98
E28 [11], 12.3 nM	–	1.05
E28 [11], 37 nM	–	0.949
E28 [11], 111.1 nM	–	1.12
E28 [11], 333.3 nM	–	1.03
E28 [11], 1000 nM	–	1.13
E28 [11], 3000 nM	–	1.03
E31 [1], 4.1 nM	0.541	–
E31 [1], 12.3 nM	0.694	–
E31 [1], 37 nM	0.736	–
E31 [1], 111.1 nM	0.802	–
E31 [1], 333.3 nM	0.203	–
E31 [1], 1000 nM	0.509	–
E31 [1], 3000 nM	0.646	–
E31 [8], 4.1 nM	–	0.954
E31 [8], 12.3 nM	–	0.993
E31 [8], 37 nM	–	1.1
E31 [8], 111.1 nM	–	1.08
E31 [8], 333.3 nM	–	0.917
E31 [8], 1000 nM	–	0.96
E31 [8], 3000 nM	–	1.05
E34 [2], 4.1 nM	0.622	–
E34 [2], 12.3 nM	0.866	–
E34 [2], 37 nM	0.551	–
E34 [2], 111.1 nM	0.616	–
E34 [2], 333.3 nM	0.597	–
E34 [2], 1000 nM	0.71	–
E34 [2], 3000 nM	0.686	–
E34 [9], 4.1 nM	–	0.945
E34 [9], 12.3 nM	–	0.847
E34 [9], 37 nM	–	0.941
E34 [9], 111.1 nM	–	1.06
E34 [9], 333.3 nM	–	0.876
E34 [9], 1000 nM	–	1.1
E34 [9], 3000 nM	–	0.949
E57 [7], 4.1 nM	0.6	–
E57 [7], 12.3 nM	1.04	–
E57 [7], 37 nM	0.554	–
E57 [7], 111.1 nM	0.801	–
E57 [7], 333.3 nM	0.597	–
E57 [7], 1000 nM	0.686	–
E57 [7], 3000 nM	0.742	–
E57 [14], 4.1 nM	–	1.05
E57 [14], 12.3 nM	–	0.959
E57 [14], 37 nM	–	1.11
E57 [14], 111.1 nM	–	1.14
E57 [14], 333.3 nM	–	1.1
E57 [14], 1000 nM	–	1.09
E57 [14], 3000 nM	–	1.06
FT3469 [6], 4.1 nM	0.45	–
FT3469 [6], 12.3 nM	0.575	–
FT3469 [6], 37 nM	0.676	–
FT3469 [6], 111.1 nM	0.814	–
FT3469 [6], 333.3 nM	0.71	–
FT3469 [6], 1000 nM	0.957	–
FT3469 [6], 3000 nM	0.566	–
FT3469 [13], 4.1 nM	–	0.985
FT3469 [13], 12.3 nM	–	1.11
FT3469 [13], 37 nM	–	1.03
FT3469 [13], 111.1 nM	–	0.965
FT3469 [13], 333.3 nM	–	1.01
FT3469 [13], 1000 nM	–	1.24
FT3469 [13], 3000 nM	–	1.13
